Assay results taken from PMC10916560 (Food Science & Nutrition, 2023).
“Also recorded” adds a separate entry of the source. Like-named read-outs stand apart in the source and are kept apart here.

Columns and labels:
[1] = target: AChE from electrophorus electricus (Electrophorus electricus, UniProt O42275); experiment: biochemical
Description: Briefly, 50 μL of 5,5′‐dithio‐bis(2‐nitro‐benzoic) acid compound (DTNB) and 100 μL of Tris–HCl solution (1 M, pH 8.0) and 50 μL AChE from electrophorus electricus (5.32 × 10^−3 U) solution was incubated and stirred at 30°C for 15 min. Finally, the reaction was started by adding 50 μL of acetylthiocholine iodide (AChI), which was used as a substrate. Enzymatic hydrolysis of the substrate was recorded spectrophotometrically at a wavelength of 412 nm (Işık et al., [2020]; Wright & Plummer, [1973]). […] Percent inhibition values and IC50 values were determined using a graph (Kilic et al., [2020]).

[2] = DPPH radical scavenging activity; assay type: biochemical; settings: for DPPH radical scavenging activity: mean ± SD, n = 3; for free-radical scavenging activity (DPPH and ABTS): 0.2 mg/mL (200 μg/mL)
Description: The DPPH scavenging activities of PWE and isolated compounds were determined according to the method described by Blois ([1958]). In the method, the stable DPPH radical is removed by the free‐radical scavenging activity of the sample. […] Then, the prepared DPPH solution (1 mL, […]) was added, followed by incubation for 30 min in the dark. After incubation, the DPPH elimination activity of the sample was measured spectrophotometrically (Necip et al., [2021]).

[3] = ABTS radical scavenging activity; assay type: biochemical; settings: 0.2 mg/mL; mean ± SD, n = 3
Description: ABTS also forms a relatively stable free‐radical that removes color in its non‐radical form (Shirwaikar et al., [2006]). Spectrophotometric analysis of ABTS˙^+ scavenging activity was determined according to the Re method. In this method, the sample is added to the previously formed ABTS radical solution, and the amount of ABTS˙^+ remaining after a fixed time is spectrophotometrically at 734 nm. […] The absorbance was recorded 30 min after mixing, and the percentage of radical scavenging was calculated for each concentration compared to the blank sample without scavenger (Necip & Durgun, [2022]; Re et al., [1999]).

[4] = FRAP metal reduction assay; assay type: biochemical; settings: for metal reduction capacity, FRAP (in words): 0.2 mg/mL, Figure 5; for metal-reducing capacity (in words): FRAP and CUPRAC, statement in discussion
Description: (§1) The ferric cyanide (Fe^3+) reducing antioxidant power (FRAP) assay was performed using the modified method of the previously described Oyaizu method (Oyaizu, [1986]). The complex is formed when the method is reduced to the ferrous (Fe^2+) ion to ferric tripyridyl triazene (Fe^3+‐TPTZ) complex at 700 nm. It is based on the spectrophotometric measurement of the complex. The reduction capacity for cupric ions (Cu^2+) was determined by cupric ions reducing assay (CUPRAC) as previously described. A volume of 0.25 mL neocuproine (7.5 mM) in ethanol, 0.25 mL NH4Ac (1 M), and 0.25 mL CuCl2 (0.01 M) were mixed with isolated compounds, PWE, and different amounts of standards (10, 20, and 40 μg/mL).

[5] = CUPRAC cupric ions reducing assay; assay type: biochemical; settings: 0.2 mg/mL, Figure 5
Description: as §1

[6] = ref El-Hady et al., 2013; cited from earlier work
AChE = settings: read-out: AChE IC50; ref El-Hady et al., 2013; cited from earlier work

Sequence of AChE from electrophorus electricus (O42275 24-633): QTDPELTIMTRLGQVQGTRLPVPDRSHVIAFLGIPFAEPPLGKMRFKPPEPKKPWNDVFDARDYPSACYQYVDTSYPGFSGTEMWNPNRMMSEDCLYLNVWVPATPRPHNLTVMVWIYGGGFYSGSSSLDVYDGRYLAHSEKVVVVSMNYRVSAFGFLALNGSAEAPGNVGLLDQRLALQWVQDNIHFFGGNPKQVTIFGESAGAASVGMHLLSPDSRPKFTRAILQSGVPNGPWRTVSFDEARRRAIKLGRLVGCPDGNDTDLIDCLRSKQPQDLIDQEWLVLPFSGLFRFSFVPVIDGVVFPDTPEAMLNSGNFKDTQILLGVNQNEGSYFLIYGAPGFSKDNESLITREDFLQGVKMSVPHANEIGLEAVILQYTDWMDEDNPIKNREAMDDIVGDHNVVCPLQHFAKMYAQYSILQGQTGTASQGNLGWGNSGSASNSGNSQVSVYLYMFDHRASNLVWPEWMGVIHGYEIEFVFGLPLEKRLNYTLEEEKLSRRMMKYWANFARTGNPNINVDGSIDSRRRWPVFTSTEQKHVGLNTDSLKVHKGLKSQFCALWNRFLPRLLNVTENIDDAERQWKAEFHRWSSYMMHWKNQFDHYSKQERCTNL

SMILES	DPPH radical scavenging activity ([2]; 0.2 mg/mL)	ABTS radical scavenging activity [3] [%]	IC50 [1] [µM]	other results
O=C1C[C@@H](c2ccccc2)Oc2cc(O)cc(O)c21 [Pinocembrin, pinocembrin]	Inactive	26.32 ± 1.3	–	IC50 ([1]; isolated compounds, read-out: AChE (IC50)): 1100 ± 40 µM
COc1ccc(O)c(C(C)(C)C)c1 [BHA, reference compound]	80.20 ± 2.9%	93.62 ± 3.6	–	–
COc1cc2ccc(=O)oc2c(O)c1O [Fraxetin, fraxetin]	81.11 ± 1.7%	87.44 ± 3.8	730 ± 40	metal reduction capacity, FRAP (in words) [4]: moderate metal reduction capacity; metal-reducing capacity (in words) [4]: high metal‐reducing capacity; radical scavenging activity (in words) ([2]; DPPH and ABTS, 0.2 mg/mL): highest radical scavenging activities; free-radical scavenging activity (DPPH and ABTS) ([2]; DPPH and ABTS): over 60%; metal reduction capacity, CUPRAC (in words) [5]: metal reduction capacity close to the standards
O=c1cc(-c2ccccc2)oc2cc(O)cc(O)c12 [Chrysin, chrysin]	Inactive	4.35 ± 0.7	640 ± 20	–
O=c1c(O)c(-c2ccccc2)oc2cc(O)cc(O)c12 [Galangin, galangin]	44.73 ± 1.8%	62.01 ± 1.9	790 ± 20	metal reduction capacity, FRAP (in words) [4]: high metal reduction activity; metal-reducing capacity (in words) [4]: high metal‐reducing capacity; free-radical scavenging activity (DPPH and ABTS) ([2]; DPPH and ABTS): over 60%; metal reduction capacity, CUPRAC (in words) ([5]; listed as 15): high metal reduction activity; also recorded: metal reduction capacity close to the standards
COc1cc(O)c2c(=O)cc(-c3ccc(O)cc3)oc2c1 [Genkwanin, genkwanin]	Inactive	8.95 ± 0.8	1150 ± 30	–
Cc1cc(C(C)(C)C)c(O)c(C(C)(C)C)c1 [BHT, reference compound]	51.57 ± 1.5%	58.06 ± 2.4	–	–
O=c1cc(-c2ccc(O)cc2)oc2cc(O)cc(O)c12 [Apigenin, apigenin]	79.02 ± 2.2%	59.41 ± 1.5	710 ± 30	metal reduction capacity, FRAP (in words) [4]: moderate metal reduction capacity; metal-reducing capacity (in words) [4]: high metal‐reducing capacity; free-radical scavenging activity (DPPH and ABTS) ([2]; DPPH and ABTS): over 60%; metal reduction capacity, CUPRAC (in words) [5]: metal reduction capacity close to the standards
Cc1c(C)c2c(c(C)c1O)CCC(C)(C(=O)O)O2 (stereo not drawn) [Trolox, trolox, reference compound]	90.37 ± 3.8%	89.99 ± 3.2	–	–
O=C1c2c(O)cc(O)cc2O[C@H](c2ccccc2)[C@H]1O [Pinobanksin, pinobanksin]	3.55 ± 0.6%	15.63 ± 0.9	450 ± 10	–
CC(C)=CCC[C@@H](C)[C@H]1CC[C@@]2(C)[C@@H]3CC[C@H]4C(C)(C)[C@@H](O)CC[C@@]45C[C@@]35CC[C@]12C [3β‐cycloartenol]	–	–	–	free-radical scavenging activity [6]: 59%; IC50 (AChE): 3.6 ± 0.1 µM
